Earlier results, collected in US20220257490A1, “METHOD FOR DYEING KERATINOUS MATERIAL, COMPRISING THE USE OF AN ORGANOSILICON COMPOUND, A COLORED EFFECT PIGMENT AND A FILM-FORMING POLYMER IV” (Henkel AG & Co. KGaA, priority 2019, published 2022).

Conditions: 25° C.

| Compound | solubility in water | solubility in water (in words) |
| --- | --- | --- |
| O=S(=O)([O-])c1ccc(N=Nc2c(O)ccc3ccccc23)cc1.[Na+] [Acid Orange 7, sodium salt of 4-[(2-hydroxy-1-naphthyl)azo]benzene sulphonate] | more than 7 g/L | – |
| Nc1cc(S(=O)(=O)[O-])cc2cc(S(=O)(=O)[O-])c(N=Nc3ccccc3)c(O)c12.[Na+].[Na+] [Acid Red 33, disodium salt of 5-amino-4-hydroxy-3-(phenylazo)-naphthalene-2,7-disulphonate] | 2500 µg/mL | – |
| O=C([O-])c1c(Cl)c(Cl)c(Cl)c(Cl)c1-c1c2c(Br)cc(=O)c(Br)c-2oc2c(Br)c(O)cc(Br)c12.O=C([O-])c1c(Cl)c(Cl)c(Cl)c(Cl)c1-c1c2c(Br)cc(=O)c(Br)c-2oc2c(Br)c(O)cc(Br)c12.[Na+].[Na+] [Acid Red 92, disodium salt of 3,4,5,6-tetrachloro-2-(1,4,5,8-tetrabromo-6-hydroxy-3-oxoxanthen-9-yl)benzoic acid] | greater than 10 g/L | – |
| O=C([O-])C1=NN(c2ccc(S(=O)(=O)[O-])cc2)C(=O)C1N=Nc1ccc(S(=O)(=O)[O-])cc1.[Na+].[Na+].[Na+] (stereo not shown) [Acid Yellow 23, trisodium salt of 4,5-dihydro-5-oxo-1-(4-sulfophenyl)-4-((4-sulfophenyl)azo)-1H-pyrazole-3-carboxylic acid] | – | highly soluble in water |
